The record followed here is ChEMBL document CHEMBL1828583, “Discovery process and pharmacological characterization of a novel dual orexin 1 and orexin 2 receptor antagonist useful for treatment of sleep disorders” (Bioorg Med Chem Lett, 2011).

Data set [1] addresses T1, Orexin/Hypocretin receptor type 1 (Homo sapiens, UniProt O43613).
T1 sequence (O43613 whole entry): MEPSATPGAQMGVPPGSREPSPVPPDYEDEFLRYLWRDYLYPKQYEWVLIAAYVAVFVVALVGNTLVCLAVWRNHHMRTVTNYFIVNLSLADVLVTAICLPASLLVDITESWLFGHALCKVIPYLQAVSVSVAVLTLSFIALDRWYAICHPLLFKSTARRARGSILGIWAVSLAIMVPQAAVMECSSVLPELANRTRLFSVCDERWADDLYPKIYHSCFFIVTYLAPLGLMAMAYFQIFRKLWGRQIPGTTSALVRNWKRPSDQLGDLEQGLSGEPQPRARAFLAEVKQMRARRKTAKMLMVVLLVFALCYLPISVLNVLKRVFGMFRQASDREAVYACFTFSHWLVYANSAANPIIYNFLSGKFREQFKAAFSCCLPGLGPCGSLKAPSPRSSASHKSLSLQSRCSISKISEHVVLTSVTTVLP
The data set can be described thus: Antagonist activity at recombinant human OX1R expressed in CHO cells by FLIPR calcium based functional assay. Format: cell-based.

A further data set addresses T2, Orexin receptor type 2 (Homo sapiens, UniProt O43614).
T2 sequence (O43614 whole entry): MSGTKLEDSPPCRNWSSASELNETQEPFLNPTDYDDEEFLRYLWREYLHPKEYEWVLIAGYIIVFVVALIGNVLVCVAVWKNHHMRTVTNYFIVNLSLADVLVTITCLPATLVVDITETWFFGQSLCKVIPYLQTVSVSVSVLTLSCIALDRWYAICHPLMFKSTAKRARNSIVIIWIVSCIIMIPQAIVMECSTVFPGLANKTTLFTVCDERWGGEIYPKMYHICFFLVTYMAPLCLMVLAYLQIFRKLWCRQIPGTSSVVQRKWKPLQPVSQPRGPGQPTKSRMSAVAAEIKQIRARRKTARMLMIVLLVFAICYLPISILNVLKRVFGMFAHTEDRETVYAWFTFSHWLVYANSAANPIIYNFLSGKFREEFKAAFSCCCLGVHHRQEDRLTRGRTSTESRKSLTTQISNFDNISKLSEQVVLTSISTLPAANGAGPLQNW
In words: Antagonist activity at recombinant human OX2R expressed in CHO cells by FLIPR calcium based functional assay. Format: cell-based.

Data set [2] relates to Rattus norvegicus. The data set can be described thus: Neurotoxicity in CD rat assessed as impairment of motor coordination at 1 to 10 mg/kg, po by rotarod test. The arrangement: dose 1-10 mg/kg, route oral. The note with it: in vivo. In kind it is toxicity, organism-based.
Data set [3] relates to Rattus norvegicus. In words: Neurotoxicity in CD rat assessed as impairment of motor coordination at 1 to 10 mg/kg, po by rotarod test in presence of 1 g/kg, ip ethanol. In kind it is toxicity, organism-based. Set-up: dose 1-10 mg/kg, route oral. The note with it: in vivo. On the technique in general: In the rotarod test animals must keep their balance on a rotating rod.
The test system of the next data set is Liver microsomes. In words: Intrinsic clearance in human liver microsomes. In kind it is ADME, Microsome. For orientation: Liver microsomes are a subcellular fraction often used to study metabolism.

Regarding `O=C(C[C@@H]1CCCCN1C(=O)c1ccccc1-c1ccccc1)Nc1ccccc1`, the Ki (commonly a dissociation constant, usually derived from enzyme kinetics or from competition with a known ligand) in data set [1] is 50.1 nM; at Orexin receptor type 2, 31.6 nM.
For `O=C(c1ccc(Cl)c(Cl)c1)N1CCCCC1CCOc1ccc(Cl)c(Cl)c1` (racemic) the same measures were 2510 nM and over 3160 nM.
For `O=C(NC[C@@H]1CCCCN1C(=O)c1ccccc1-c1ccccc1)c1ccccc1` the same measures were 7.94 nM and 20 nM.
With `O=C(NC[C@@H]1CCCCN1C(=O)c1ccccc1-c1ccccc1)Nc1ccccc1`, the Ki in data set [1] is 1 nM; at Orexin receptor type 2, 5.01 nM.
Consider `Cc1ccc(-c2nc3ccc(C)cn3c2CC(=O)N(C)C)cc1` [ZOLPIDEM], for which the Activity entry with Rattus norvegicus [2] and in the data set with Rattus norvegicus [3] was “Toxic” throughout.
Turning to `O=C(c1ccccc1-c1ccccc1)N1CCCCC1CCOc1ccc(F)cc1` (racemic), the Ki was 5.01 nM in data set [1] and 20 nM at Orexin receptor type 2. This compound came in with a CL with Liver microsomes of over 50 mL/min/g.
`O=C(NC[C@@H]1CCCCN1C(=O)c1ccccc1-c1ccccc1)c1ccc(F)cc1`: the inhibition constant (Ki) is 0.126 nM in data set [1] and 0.251 nM at Orexin receptor type 2. Besides, the CL in the data set with Liver microsomes came out at 23 mL/min/g.
On to `COc1cccc(C(=O)N2CCCCC2CCOc2ccc(Cl)c(Cl)c2)c1` (racemic), for which the figures for the Ki (in data set [1]; at Orexin receptor type 2) were 126 nM and 501 nM, respectively.
With `CN(C[C@@H]1CCCCN1C(=O)c1ccccc1-c1ccccc1)C(=O)c1ccc(F)cc1`, the figures for the Ki (in data set [1]; on Orexin receptor type 2) were 501 nM and 1260 nM, respectively.
Turning to `N#Cc1cccc(C(=O)N2CCCCC2CCOc2ccc(Cl)c(Cl)c2)c1` (racemic), the values for the Ki (in data set [1]; on Orexin receptor type 2) were 398 nM and 631 nM, respectively.
For `O=C(c1cccc2ccccc12)N1CCCC[C@H]1CCOc1ccc(F)cc1` the same measures were 6.31 nM and 126 nM.
`O=C(NC[C@H]1CCCCN1C(=O)c1ccccc1-c1ccccc1)c1ccc(F)cc1`: the values for the Ki (in data set [1]; at Orexin receptor type 2) were 39.8 nM and 31.6 nM, respectively.
For the compound `O=C(c1ccccc1-c1ccccc1)N1CCCC[C@H]1CCOc1ccc(F)cc1F`, the Ki in data set [1] was 0.158 nM; at Orexin receptor type 2 it was 0.794 nM.
In the case of `O=C(CC[C@@H]1CCCCN1C(=O)c1ccccc1-c1ccccc1)c1ccccc1`, the Ki is 10 nM in data set [1] and 20 nM on Orexin receptor type 2.
